Key:
[1] = tested on: C. sporogenes; assay: IPA production by concentrated C. sporogenes bacterial solution with Trp and/or Phe; type: cell-based, Clostridium sporogenes; details: 37° C., anaerobic, 24 hr; Trp 0.3 mM fixed, Phe 0.3-1.2 mM; FIG. 1-3
Procedure: To evaluate the influence of Trp and a combination of Trp and Phe on IPA production, pure culture experiments using C. sporogenes were performed. As C. sporogenes, in-house strain of Ajinomoto Co., Inc. was used. First, 800 μL of C. sporogenes glycerol stock was added to 40 mL of reinforced Clostridium medium and cultured under anaerobic conditions at 37° C. for 18 hr. After culturing, centrifugation was performed at 9,100×g for 5 min at 4° C., and the precipitate was collected under anaerobic conditions, washed twice with PBS, and finally suspended in 5 mL of PBS after anaerobic treatment to obtain a concentrated bacterial solution. The influence of the concentrated bacterial solution on IPA production was investigated. […] Furthermore, similar to Experimental Example 1, the influence of Phe/Trp molar ratios between 1 and 10 on IPA production in C. sporogenes was evaluated using GEM analysis.
The IPA concentration in the culture supernatant was analyzed using an LC-MS/MS mass spectrometry system (mass spectrometer: SCIEX API3200, pump: Shimadzu Corporation LC-20AD, autosampler: Shimadzu Corporation SIL-20AC, column oven: Shimadzu Corporation CTO-20AC, system controller: Shimadzu Corporation CBM-20A, degasser: Shimadzu Corporation DGU-20A, nitrogen generator: Airtech AT5NP-25CSL). […]

[2] = tested on: C. sporogenes; assay: Pure culture growth test of C. sporogenes with added amino acid (OD600); type: cell-based, Clostridium sporogenes; details: amino acid added at final concentration 4 mM; 1/5 diluted medium; vs control; FIG. 1-2
Procedure: Amino acids that promote the growth of an IPA-producing bacterium C. sporogenes were narrowed down using a genome-scale metabolic model (GEM) simulation, and then evaluated in a pure culture system. The GEM simulation was performed using COBRA toolbox of MATLAB (registered trademark), and amino acids that affected the growth of C. sporogenes when 20 types of amino acids were removed one by one were selected. Then, the influence of amino acids selected by GEM analysis on the growth of C. sporogenes was investigated in a pure culture system. As C. sporogenes, an in-house strain from Ajinomoto Co., Inc. was used, and as the culture medium, ⅕ diluted enhanced Clostridium medium (Difico, #62620609) was used. Each amino acid was added to the medium to a final concentration of 4 mM, and the growth of C. sporogenes was evaluated using OD600 as an indicator. The control contained no addition of amino acid (culture medium only).

N[C@@H](Cc1ccccc1)C(=O)O [Phe, L-phenylalanine]
IPA in the culture supernatant [1]: no effect
growth of C. sporogenes (OD600) [2]: promoted the growth of C. sporogenes

Reference: US20260232712A1, “Food for Improving Intestinal Environment” (AJINOMOTO CO., INC., priority 2023, published 2026)
